The structures appear in SMILES notation. Calls of active or inactive are those of the source. No rule for the calls is given here.

Results on 3 compounds are retold here after PubChem BioAssay AID1259407 (Chemical Carcinogenesis Research Information System (CCRIS), 2018).

For this series, the system named is CCRIS mutagenicity, Ames/micronucleus/aberration tests. Put plainly: CCRIS mutagenicity studies.
Where [1] appears, read: Test System: AMES SALMONELLA TYPHIMURIUM, Strain/Indicator: TA98, Metabolic Activation: NONE, Method: PREINCUBATION
Where [2] appears, read: Test System: AMES SALMONELLA TYPHIMURIUM, Strain/Indicator: TA100, Metabolic Activation: NONE, Method: PREINCUBATION
The mark [3] stands for this setting: Test System: AMES SALMONELLA TYPHIMURIUM, Strain/Indicator: TA102, Metabolic Activation: NONE, Method: PREINCUBATION
[4] abbreviates: Test System: AMES SALMONELLA TYPHIMURIUM, Strain/Indicator: TA102, Metabolic Activation: RAT, LIVER, S-9, AROCLOR 1254, Method: PREINCUBATION
Where [5] appears, read: Test System: AMES SALMONELLA TYPHIMURIUM, Strain/Indicator: TA1535, Metabolic Activation: NONE, Method: PREINCUBATION
Setting [6] is: Test System: AMES SALMONELLA TYPHIMURIUM, Strain/Indicator: TA1537, Metabolic Activation: NONE, Method: PREINCUBATION

For `OCc1ccco1`, the mutagenic call was “inactive; negative” (Test System: AMES SALMONELLA TYPHIMURIUM, Strain/Indicator: TA98, Metabolic Activation: HAMSTER LIVER S-9, AROCLOR 1254 (10%), Method: PREINCUBATION); “inactive; negative” under setting [1]; “inactive; negative” (Test System: AMES SALMONELLA TYPHIMURIUM, Strain/Indicator: TA98, Metabolic Activation: NONE, Method: STANDARD PLATE); “inactive; negative” (Test System: AMES SALMONELLA TYPHIMURIUM, Strain/Indicator: TA98, Metabolic Activation: RAT LIVER S-9, AROCLOR 1254 (10%), Method: PREINCUBATION); “inactive; negative” (Test System: AMES SALMONELLA TYPHIMURIUM, Strain/Indicator: TA98, Metabolic Activation: RAT, LIVER, S-9, AROCLOR 1254, Method: PREINCUBATION); “inactive; negative” (Test System: AMES SALMONELLA TYPHIMURIUM, Strain/Indicator: TA98, Metabolic Activation: S-9, Method: STANDARD PLATE). Also, the mutagenic call by setting is: (Test System: AMES SALMONELLA TYPHIMURIUM, Strain/Indicator: TA100, Metabolic Activation: HAMSTER LIVER S-9, AROCLOR 1254 (10%), Method: PREINCUBATION) “inactive; negative”; under setting [2], “inactive; negative”; (Test System: AMES SALMONELLA TYPHIMURIUM, Strain/Indicator: TA100, Metabolic Activation: NONE, Method: STANDARD PLATE) “inactive; negative”; (Test System: AMES SALMONELLA TYPHIMURIUM, Strain/Indicator: TA100, Metabolic Activation: RAT LIVER S-9, AROCLOR 1254 (10%), Method: PREINCUBATION) “inactive; negative”; (Test System: AMES SALMONELLA TYPHIMURIUM, Strain/Indicator: TA100, Metabolic Activation: RAT, LIVER, S-9, AROCLOR 1254, Method: PREINCUBATION) “inactive; negative”; (Test System: AMES SALMONELLA TYPHIMURIUM, Strain/Indicator: TA100, Metabolic Activation: S-9, Method: STANDARD PLATE) “inactive; negative”. Besides, the mutagenic call reads like this: under setting [3], “inactive; negative”; under setting [4], “inactive; negative”; (Test System: AMES SALMONELLA TYPHIMURIUM, Strain/Indicator: TA1535, Metabolic Activation: HAMSTER LIVER S-9, AROCLOR 1254 (10%), Method: PREINCUBATION) “inactive; negative”; under setting [5], “inactive; negative”; (Test System: AMES SALMONELLA TYPHIMURIUM, Strain/Indicator: TA1535, Metabolic Activation: RAT LIVER S-9, AROCLOR 1254 (10%), Method: PREINCUBATION) “inactive; negative”; (Test System: AMES SALMONELLA TYPHIMURIUM, Strain/Indicator: TA1537, Metabolic Activation: HAMSTER LIVER S-9, AROCLOR 1254 (10%), Method: PREINCUBATION) “inactive; negative”. In addition, the mutagenic call is “inactive; negative” under setting [6] and “inactive; negative” (Test System: AMES SALMONELLA TYPHIMURIUM, Strain/Indicator: TA1537, Metabolic Activation: RAT LIVER S-9, AROCLOR 1254 (10%), Method: PREINCUBATION).

In the case of `CC(C)=O`, the mutagenic call is, setting by setting: (End Point: IN VITRO CHROMOSOMAL ABERRATIONS, Test System: CHO-LB CELLS, Metabolic Activation: NONE) “inactive; negative”; (End Point: IN VITRO CHROMOSOMAL ABERRATIONS, Test System: CHO-LB CELLS, Metabolic Activation: RAT, LIVER, S-9, AROCLOR 1254) “inactive; negative”; (Test System: AMES SALMONELLA TYPHIMURIUM, Strain/Indicator: TA97, Metabolic Activation: HAMSTER, LIVER, S-9, AROCLOR 1254 (10 OR 30%), Method: PREINCUBATION) “inactive; negative”; (Test System: AMES SALMONELLA TYPHIMURIUM, Strain/Indicator: TA97, Metabolic Activation: NONE, Method: PREINCUBATION) “inactive; negative”; (Test System: AMES SALMONELLA TYPHIMURIUM, Strain/Indicator: TA97, Metabolic Activation: RAT, LIVER, S-9, AROCLOR 1254 (10 OR 30%), Method: PREINCUBATION) “inactive; negative”; (Test System: AMES SALMONELLA TYPHIMURIUM, Strain/Indicator: TA97, Metabolic Activation: RAT, LIVER, S-9, AROCLOR 1254, Method: PREINCUBATION) “inactive; negative”. The mutagenic call runs as follows: (Test System: AMES SALMONELLA TYPHIMURIUM, Strain/Indicator: TA98, Metabolic Activation: HAMSTER, LIVER, S-9, AROCLOR 1254 (10 OR 30%), Method: PREINCUBATION) “inactive; negative”; under setting [1], “inactive; negative”; (Test System: AMES SALMONELLA TYPHIMURIUM, Strain/Indicator: TA98, Metabolic Activation: RAT, LIVER, S-9, AROCLOR 1254 (10 OR 30%), Method: PREINCUBATION) “inactive; negative”; (Test System: AMES SALMONELLA TYPHIMURIUM, Strain/Indicator: TA100, Metabolic Activation: HAMSTER, LIVER, S-9, AROCLOR 1254 (10 OR 30%), Method: PREINCUBATION) “inactive; negative”; under setting [2], “inactive; negative”; (Test System: AMES SALMONELLA TYPHIMURIUM, Strain/Indicator: TA100, Metabolic Activation: RAT, LIVER, S-9, AROCLOR 1254 (10 OR 30%), Method: PREINCUBATION) “inactive; negative”. Moreover, the mutagenic call reads like this: under setting [3], “inactive; negative”; under setting [4], “inactive; negative”; (Test System: AMES SALMONELLA TYPHIMURIUM, Strain/Indicator: TA1535, Metabolic Activation: HAMSTER, LIVER, S-9, AROCLOR 1254 (10 OR 30%), Method: PREINCUBATION) “inactive; negative”; under setting [5], “inactive; negative”; (Test System: AMES SALMONELLA TYPHIMURIUM, Strain/Indicator: TA1535, Metabolic Activation: RAT, LIVER, S-9, AROCLOR 1254 (10 OR 30%), Method: PREINCUBATION) “inactive; negative”; (Test System: AMES SALMONELLA TYPHIMURIUM, Strain/Indicator: TA1537, Metabolic Activation: HAMSTER, LIVER, S-9, AROCLOR 1254 (30%), Method: PREINCUBATION) “inactive; negative”. Besides, the mutagenic call is, setting by setting: under setting [6], “inactive; negative”; (Test System: AMES SALMONELLA TYPHIMURIUM, Strain/Indicator: TA1537, Metabolic Activation: RAT, LIVER, S-9, AROCLOR 1254 (30%), Method: PREINCUBATION) “inactive; negative”.

Take `Cc1ccc2nc3c(ccc4ccccc43)c(C)c2c1`: the mutagenic call is, setting by setting: (Test System: AMES SALMONELLA TYPHIMURIUM, Strain/Indicator: TA97A, Metabolic Activation: NONE, Method: PREINCUBATION) “inactive; negative”; under setting [1], “inactive; negative”; (Test System: AMES SALMONELLA TYPHIMURIUM, Strain/Indicator: TA98, Metabolic Activation: RAT, LIVER, S-9, AROCLOR 1254, Method: STANDARD PLATE) “active; positive”; under setting [2], “inactive; negative”; (Test System: AMES SALMONELLA TYPHIMURIUM, Strain/Indicator: TA100, Metabolic Activation: RAT, LIVER, S-9, AROCLOR 1254, Method: STANDARD PLATE) “active; positive”; under setting [3], “active; positive”. The mutagenic call runs as follows: (Test System: E. COLI, Strain/Indicator: WP2 UVRA, Metabolic Activation: HAMSTER, LIVER, S-9, AROCLOR 1254, Method: STANDARD PLATE) “inactive; negative”; (Test System: E. COLI, Strain/Indicator: WP2 UVRA, Metabolic Activation: HAMSTER, LIVER, S-9, Method: STANDARD PLATE) “inactive; negative”; (Test System: E. COLI, Strain/Indicator: WP2 UVRA, Metabolic Activation: MOUSE, LIVER, S-9, AROCLOR 1254, Method: STANDARD PLATE) “inactive; negative”; (Test System: E. COLI, Strain/Indicator: WP2 UVRA, Metabolic Activation: MOUSE, LIVER, S-9, Method: STANDARD PLATE) “inactive; negative”; (Test System: E. COLI, Strain/Indicator: WP2 UVRA, Metabolic Activation: NONE, Method: STANDARD PLATE) “inactive; negative”; (Test System: E. COLI, Strain/Indicator: WP2 UVRA, Metabolic Activation: RAT, LIVER, S-9, AROCLOR 1254, Method: STANDARD PLATE) “inactive; negative”. The mutagenic call (Test System: E. COLI, Strain/Indicator: WP2 UVRA, Metabolic Activation: RAT, LIVER, S-9, Method: STANDARD PLATE) was “inactive; negative”.
